Key:
[1] = target: T1, CDK2/CycE (Homo sapiens, UniProt P24941); experiment: CDK2/CycE kinase assay; assay type: biochemical; conditions: recombinant CDK2/CycE, histone IIIS substrate, 0.5 μm ATP
T1 construct: GST; purchased Dr. Dieter Marmé, Klinik für Tumorbiologie, Freiburg (external academic supplier); host or cells: baculovirus-infected Sf9 insect cells
Method: Recombinant CDK2- and CycE-GST-fusion proteins, purified from baculovirus-infected insect cells (Sf9), were obtained by Dr. Dieter Marmé, Klinik für Tumorbiologie [Clinic for Tumor Biology], Freiburg. Histone IIIS, which was used as a kinase substrate, was purchased by the Sigma Company.
CDK2/CycE (50 ng/measuring point) was incubated for 15 minutes at 22° C. in the presence of various concentrations of test substances (0 μm, as well as within the range of 0.01-100 μm) in assay buffer [50 mmol of tris/HCl pH 8.0, 10 mmol of MgCl2, 0.1 mmol of Na ortho-vanadate, 1.0 mmol of dithiothreitol, 0.5 μm of adenosine triphosphate (ATP), 10 μg/measuring point of histone IIIS, 0.2 μCi/measuring point of ^33P-gamma ATP, 0.05% NP40, 12.5% dimethyl sulfoxide]. The reaction was stopped by adding EDTA solution (250 mmol, pH 8.0, 14 μl/measuring point).
From each reaction batch, 10 μl was applied to P30 filter strips (Wallac Company), and non-incorporated ^33P-ATP was removed by subjecting the filter strips to three washing cycles for 10 minutes each in 0.5% phosphoric acid. After the filter strips were dried for one hour at 70° C., the filter strips were covered with scintillator strips (MeltiLex™ A, Wallac Company) and baked for one hour at 90° C. The amount of incorporated ^33p (substrate phosphorylation) was determined by scintillation measurement in a gamma-radiation measuring device (Wallac).

[2] = tested on: MCF-7; experiment: Proliferation assay, MCF-7; assay type: cell-based, human; conditions: MCF7, 96 h, 4 days incubation, crystal violet
Method: (§1) Cultivated human tumor cells (as indicated) were flattened out at a density of 5000 cells/measuring point in a 96-well multititer plate in 200 μl of the corresponding growth medium. After 24 hours, the cells of one plate (zero-point plate) were colored with crystal violet (see below), while the medium of the other plates was replaced by fresh culture medium (200 μl), to which the test substances were added in various concentrations (0 μm, as well as in the range of 0.01-30 μm; the final concentration of the solvent dimethyl sulfoxide was 0.5%. The cells were incubated for 4 days in the presence of test substances. The cell proliferation was determined by coloring the cells with crystal violet: the cells were fixed by adding 20 μl/measuring point of a 11% glutaric aldehyde solution for 15 minutes at room temperature. After three washing cycles of the fixed cells with water, the plates were dried at room temperature. The cells were colored by adding 100 μl/measuring point of a 0.1% crystal violet solution (pH was set at 3 by adding acetic acid). After three washing cycles of the colored cells with water, the plates were dried at room temperature. The dye was dissolved by adding 100 μl/measuring point of a 10% acetic acid solution. The extinction was determined by photometry at a wavelength of 595 nm. The change of cell growth, in percent, was calculated by standardization of the measured values to the extinction values of the zero-point plate (=0%) and the extinction of the untreated (0 μm) cells (=100%).

[3] = tested on: HCT116; experiment: Proliferation assay, HCT116; assay type: cell-based; conditions: Homo sapiens, HCT-116, 96 h; comparison table; 4 days incubation, crystal violet
Method: as §1, with “After three washing cycles of the colored cells with water, the plates were dried at room temperature. The dye was dissolved by adding 100 μl/measuring point of a 10% acetic acid solution.” left out

[4] = tested on: H460; experiment: Proliferation assay, H460; assay type: cell-based; conditions: Homo sapiens, NCI-H460, 96 h; comparison table; 4 days incubation, crystal violet
Method: as §1, with “After three washing cycles of the colored cells with water, the plates were dried at room temperature. The dye was dissolved by adding 100 μl/measuring point of a 10% acetic acid solution.” left out

[5] = tested on: DU145; experiment: Proliferation assay, DU145; assay type: cell-based; conditions: Homo sapiens, DU-145, 96 h; comparison table; 4 days incubation, crystal violet
Method: as §1, with “After three washing cycles of the colored cells with water, the plates were dried at room temperature. The dye was dissolved by adding 100 μl/measuring point of a 10% acetic acid solution.” left out

Q: Which melting point does the source give for CSc1ccc2c(c1)/C(=C1/Nc3ccccc3C1=O)C(=O)N2 [Example 1.0, 5-Methylsulfanyl-indirubin] here?
A: > 210 °C

Q: What about the IC50 ([1]; comparison table) of the same compound?
A: 300 nM

Q: What about the IC50 ([2]; Homo sapiens, comparison table) of the same compound?
A: 500 nM

Q: What does the source list for CSc1ccc2c(c1)/C(=C1/Nc3ccc(NC(C)=O)cc3C1=O)C(=O)N2 [Example 5.0, 5-Methysulfanyl-5′-N-acetylindirubin]?
A: IC50 [1]: 110 nM; IC50 ([2]; human tumor cells): 5000 nM

Q: Which results are given for C[S+]([O-])c1ccc2c(c1)/C(=C1/Nc3ccccc3C1=O)C(=O)N2 (stereo not drawn) [Example 2.0, 5-Methylsulfinyl-indirubin]?
A: IC50 [3]: 2500 nM; melting point: 284 °C; IC50 [4]: 4000 nM; IC50 [5]: 6000 nM; IC50 ([1]; comparison table): 80 nM; IC50 ([2]; Homo sapiens, comparison table): 1500 nM

Q: For CSc1ccc2c(c1)/C(=C1/Nc3ccccc3/C1=N\O)C(=O)N2 [Example 4.0, 5-Methylsulfanyl-3′,-hydroyimino-indirubin], which IC50 [3] is on record?
A: 600 nM

Q: And the melting point?
A: 156 °C

Q: What about the IC50 [4] of the same compound?
A: 1000 nM

Q: And the IC50 [5]?
A: 1000 nM

Q: And the IC50 ([1]; comparison table)?
A: 20 nM

Q: What about the IC50 ([2]; Homo sapiens, comparison table) of the same compound?
A: 700 nM

Q: For CSc1ccc2c(c1)/C(=C1/Nc3ccc(OCc4ccccc4)cc3C1=O)C(=O)N2 [Example 5.1], which IC50 [1] is on record?
A: 5000 nM
